Data on eleven compounds can be found in ChEMBL document CHEMBL5120765, “Synthesis of novel 1-phenyl-benzopyrrolizidin-3-one derivatives and evaluation of their cytoneuroprotective effects against NMDA-induced injury in PC12 cells” (Bioorg Med Chem, 2022).

Test [1] relates to PC-12. Kind of test: Neuroprotective activity against NMDA-induced excitotoxicity in rat PC-12 cells assessed as increase in cell viability at 20 uM pretreated for 24 hr followed by NMDA addition and measured after 6 hrs by MTT assay. The test is classed as functional.
The test system of test [2] is PC-12. Nature of the test: Neuroprotective effect against NMDA-induced rat PC-12 cells assessed as prevention of morphological changes at 15 uM. The test is classed as functional, cell-based.
Test [3] has as its system PC-12. Kind of test: Neuroprotective activity against NMDA-induced excitotoxicity in rat PC-12 cells assessed as increase in cell viability pretreated for 24 hr followed by NMDA addition and measured after 6 hrs by MTT assay. It counts as functional, cell-based. The following applies: dose 2.5-20 µM, time 30.0 hrs, DDE = dose-dependent effect.
Test [4] has as its system PC-12. Kind of test: Inhibition of NMDA-induced Ca2+ influx in rat PC-12 cells assessed as reduction in intracellular Ca2+ concentration at 15 uM pretreated for 24 hr followed by NMDA addition and measured after 6 hrs by Fluo2-AM staining based fluorescence microscopic method. To be noted: time 30.0 hrs. It counts as functional, cell-based.
The subject of test [5] is PC-12. Kind of test: Neuroprotective activity against NMDA-induced excitotoxicity in rat PC-12 cells assessed as increase in cell viability at 15 uM pretreated for 24 hr followed by NMDA addition and measured after 6 hrs by MTT assay. The test is classed as functional. To be noted: time 30 hrs.
The subject of test [6] is PC-12. Kind of test: Neuroprotective activity against NMDA-induced excitotoxicity in rat PC-12 cells assessed as increase in cell viability at 5 uM pretreated for 24 hr followed by NMDA addition and measured after 6 hrs by MTT assay. The test is classed as functional, cell-based. To be noted: time 30.0 hrs.

The source made the active and inactive calls. The rule behind the calls is not given here.

In the case of `O=C1C[C@H](c2cccc(OCc3ccccc3)c2)[C@H]2Cc3ccccc3N12` (racemic), the outcome in test [1] (time 30.0 hrs) was Active.

For the compound `COc1cc(OC)cc([C@@H]2CC(=O)N3c4ccccc4C[C@H]23)c1` (racemic), the result in test [1] (time 30.0 hrs) was Active.

With `COc1ccccc1[C@@H]1CC(=O)N2c3ccccc3C[C@H]12` (racemic), in test [1] (time 30.0 hrs), the outcome was Active.

`O=C1C[C@@H](c2ccccc2)[C@H]2Cc3ccccc3N12` (racemic): the outcome in test [1] (time 30.0 hrs) was Active.

In the case of `COc1ccc([C@@H]2CC(=O)N3c4ccccc4C[C@H]23)cc1` (racemic), the result in test [1] (time 30.0 hrs) was Active.

Regarding `O=C1C[C@@H](c2cccc(OCc3ccccc3)c2)[C@H]2Cc3ccccc3N12` (racemic), the outcome in test [1] (time 30.0 hrs) was Active.

With `O=C1C[C@@H](c2cccc(OCc3ccccc3)c2)[C@H]2Cc3c(F)cccc3N12` (racemic), the Activity in test [1] (time 30 hrs) was 94.59%; in test [3], “Dde”; in test [5], 96.16%. For the same compound, the outcome in test [2] and in test [6] was Active. For the same compound, the inhibition result in test [4] is “Active”.

Consider `C[C@]12N[C@H](Cc3ccccc31)c1ccccc12.O=C(O)/C=C\C(=O)O` [DIZOCILPINE MALEATE], for which the Activity in test [1] (time 30 hrs) was 95.48%; in test [3], “Dde”; in test [5], 96.96%. In addition, the outcome in test [2] and in test [6] was Active. Besides, in test [4], the inhibition entry is “Active”.

As for `O=C1C[C@H](c2cccc(OCc3ccccc3)c2)[C@H]2Cc3c(F)cccc3N12` (racemic), the result in test [1] (time 30.0 hrs) was Active.

Consider `O=C1C[C@@H](c2cccc(OCc3ccccc3)c2)[C@H]2Cc3cc(OCc4ccccc4)ccc3N12` (racemic), for which the result in test [1] (time 30.0 hrs) was Active.

In the case of `COc1c(OCc2ccccc2)cccc1[C@@H]1CC(=O)N2c3ccccc3C[C@H]12` (racemic), the outcome in test [1] (time 30.0 hrs) was Active.
